Results taken from ChEMBL document CHEMBL1909046, “DrugMatrix in vitro pharmacology data”.

How the values were obtained:
[1] = DRUGMATRIX: beta-Lactamase enzyme inhibition (substrate: Nitrocefin); set-up: species or system Bacillus cereus; conditions: Not Active = under 50% inhibition at 10 µM
[2] = molecular target: T1, 5-hydroxytryptamine receptor 1A (Rattus norvegicus, UniProt P19327); format: cell membranes, CHO-K1, Membrane; conditions: cho-k1; note: in other assays of this panel Not Active means under 50% inhibition at 10 µM
T1 sequence (P19327 whole entry): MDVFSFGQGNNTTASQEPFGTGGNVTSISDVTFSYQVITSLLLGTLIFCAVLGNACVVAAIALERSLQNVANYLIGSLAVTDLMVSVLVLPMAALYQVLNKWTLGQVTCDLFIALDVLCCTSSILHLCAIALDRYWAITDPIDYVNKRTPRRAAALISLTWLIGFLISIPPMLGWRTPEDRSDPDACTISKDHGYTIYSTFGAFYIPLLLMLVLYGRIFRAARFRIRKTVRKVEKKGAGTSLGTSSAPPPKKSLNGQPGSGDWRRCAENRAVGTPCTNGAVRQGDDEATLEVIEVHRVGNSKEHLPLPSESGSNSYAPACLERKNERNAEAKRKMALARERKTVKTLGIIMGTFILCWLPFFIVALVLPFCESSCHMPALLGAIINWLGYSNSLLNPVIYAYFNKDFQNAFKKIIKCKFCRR

[3] = molecular target: Voltage-gated inwardly rectifying potassium channel KCNH2 (Homo sapiens, UniProt Q12809); conditions: hek293; note: in other assays of this panel Not Active means under 50% inhibition at 10 µM
[4] = molecular target: T2, Alpha-1B adrenergic receptor (Rattus norvegicus, UniProt P15823); experiment: DRUGMATRIX: Alpha-1B adrenergic receptor radioligand binding (ligand: prazosin); format: cell membranes, Wistar, Liver, Membrane; conditions: Not Active = under 50% inhibition at 10 µM
T2 sequence (P15823 whole entry): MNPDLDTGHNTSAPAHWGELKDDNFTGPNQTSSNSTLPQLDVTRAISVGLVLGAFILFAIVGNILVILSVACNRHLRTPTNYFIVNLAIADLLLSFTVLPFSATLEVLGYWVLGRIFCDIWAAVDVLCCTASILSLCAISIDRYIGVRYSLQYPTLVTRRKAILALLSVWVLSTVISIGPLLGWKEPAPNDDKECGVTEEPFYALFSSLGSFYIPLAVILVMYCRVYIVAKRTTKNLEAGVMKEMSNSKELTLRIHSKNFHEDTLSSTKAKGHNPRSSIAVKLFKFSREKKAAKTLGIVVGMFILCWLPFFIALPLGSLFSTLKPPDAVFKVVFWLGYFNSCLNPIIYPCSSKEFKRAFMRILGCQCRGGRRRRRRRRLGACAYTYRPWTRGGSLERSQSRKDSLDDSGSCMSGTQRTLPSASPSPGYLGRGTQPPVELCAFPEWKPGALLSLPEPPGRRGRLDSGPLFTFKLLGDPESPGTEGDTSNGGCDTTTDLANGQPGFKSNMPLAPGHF

Vasopressin V1a receptor = Vasopressin V1a receptor (Homo sapiens, UniProt P37288); format: cell membranes, Membrane; conditions: hek293; note: in other assays of this panel Not Active means under 50% inhibition at 10 µM
Leukotriene C4 synthase = molecular target: T3, Leukotriene C4 synthase (Cavia porcellus, UniProt A6XA80); experiment: biochemical; format: tissue-based, Lung;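 note: enzyme inhibition assay of leukotriene C4 synthase, using LTA4 as the substrate; in other assays of this panel Not Active means under 50% inhibition at 10 µM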
T3 sequence (A6XA80 whole entry): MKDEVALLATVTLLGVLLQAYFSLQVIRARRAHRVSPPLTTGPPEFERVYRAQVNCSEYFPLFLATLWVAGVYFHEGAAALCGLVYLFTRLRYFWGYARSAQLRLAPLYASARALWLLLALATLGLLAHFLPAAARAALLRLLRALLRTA

[5] = DRUGMATRIX: GABAA, Chloride Channel, TBOB radioligand binding (ligand: [3H] TBOB); format: cell membranes, Rattus norvegicus, Wistar, Cerebral cortex, Membrane; conditions: Not Active = under 50% inhibition at 10 µM
[6] = DRUGMATRIX: Serotonin (5-Hydroxytryptamine) 5-HT3 radioligand binding (ligand: [3H] GR-65630); format: cell membranes, Membrane; conditions: hek293; Not Active = under 50% inhibition at 10 µM
[7] = DRUGMATRIX: Calcium Channel Type L, Dihydropyridine radioligand binding (ligand: [3H] Nitrendipine); format: cell membranes, Rattus norvegicus, Wistar, Cerebral cortex, Membrane; conditions: Not Active = under 50% inhibition at 10 µM
[8] = DRUGMATRIX: Calcium Channel Type L, Benzothiazepine radioligand binding (ligand: [3H] Diltiazem); format: cell membranes, Rattus norvegicus, Wistar, Brain, Membrane; conditions: Not Active = under 50% inhibition at 10 µM
[9] = DRUGMATRIX: Atrial Natriuretic Factor (ANF) radioligand binding (ligand: [125I] ANF (rat)); format: cell membranes, Cavia porcellus, Dunkin-Hartley, Adrenal gland, Membrane; conditions: Not Active = under 50% inhibition at 10 µM
[10] = molecular target: cGMP-specific 3',5'-cyclic phosphodiesterase (Homo sapiens, UniProt O76074); experiment: DRUGMATRIX: Phosphodiesterase PDE5 enzyme inhibition (substrate: [3H]cGMP + cGMP); format: tissue-based, Platelet; conditions: platelet; Not Active = under 50% inhibition at 10 µM
[11] = molecular target: T4, Alpha-2C adrenergic receptor (Homo sapiens, UniProt P18825); experiment: DRUGMATRIX: Adrenergic Alpha-2C radioligand binding (ligand: [3H] MK-912); format: cell membranes, Sf9, Membrane; conditions: sf9
T4 sequence (P18825 whole entry): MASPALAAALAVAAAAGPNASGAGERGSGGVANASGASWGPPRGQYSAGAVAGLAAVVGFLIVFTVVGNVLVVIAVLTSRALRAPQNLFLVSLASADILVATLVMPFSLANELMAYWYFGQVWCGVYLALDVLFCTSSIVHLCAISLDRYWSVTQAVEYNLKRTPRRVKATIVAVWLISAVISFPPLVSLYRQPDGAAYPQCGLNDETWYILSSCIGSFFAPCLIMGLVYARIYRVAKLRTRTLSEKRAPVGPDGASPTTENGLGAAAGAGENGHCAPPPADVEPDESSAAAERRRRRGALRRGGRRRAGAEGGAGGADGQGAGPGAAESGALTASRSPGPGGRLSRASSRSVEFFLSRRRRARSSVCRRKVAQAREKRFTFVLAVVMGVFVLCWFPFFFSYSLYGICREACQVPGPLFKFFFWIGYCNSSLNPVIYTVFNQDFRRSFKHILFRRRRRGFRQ

Cytochrome P450 3A4 = Cytochrome P450 3A4 (Homo sapiens, UniProt P08684); conditions: bti-tn-5b1-4; note: in other assays of this panel Not Active means under 50% inhibition at 10 µM
Acetylcholinesterase = Acetylcholinesterase (Homo sapiens, UniProt P22303); experiment: DRUGMATRIX: Acetylcholinesterase enzyme inhibition (substrate: acetylthiocholine); format: cell-based, HEK293; conditions: hek293; Not Active = under 50% inhibition at 10 µM
[12] = molecular target: C-C chemokine receptor type 2 (Homo sapiens, UniProt P41597); format: cell membranes, CHO-K1, Membrane; conditions: cho-k1; note: in other assays of this panel Not Active means under 50% inhibition at 10 µM
Chain of C-C chemokine receptor type 2 (P41597 whole entry): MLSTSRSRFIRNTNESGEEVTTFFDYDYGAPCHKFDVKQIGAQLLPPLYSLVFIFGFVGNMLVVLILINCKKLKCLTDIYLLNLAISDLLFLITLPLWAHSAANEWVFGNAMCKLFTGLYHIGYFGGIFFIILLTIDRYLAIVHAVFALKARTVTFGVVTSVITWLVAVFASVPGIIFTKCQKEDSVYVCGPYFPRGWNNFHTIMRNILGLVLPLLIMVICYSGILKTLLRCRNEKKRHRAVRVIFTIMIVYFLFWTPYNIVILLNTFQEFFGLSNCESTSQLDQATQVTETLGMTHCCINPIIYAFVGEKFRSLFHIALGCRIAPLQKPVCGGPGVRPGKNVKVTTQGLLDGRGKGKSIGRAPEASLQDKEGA

Chain of Cytochrome P450 3A4 (P08684 whole entry): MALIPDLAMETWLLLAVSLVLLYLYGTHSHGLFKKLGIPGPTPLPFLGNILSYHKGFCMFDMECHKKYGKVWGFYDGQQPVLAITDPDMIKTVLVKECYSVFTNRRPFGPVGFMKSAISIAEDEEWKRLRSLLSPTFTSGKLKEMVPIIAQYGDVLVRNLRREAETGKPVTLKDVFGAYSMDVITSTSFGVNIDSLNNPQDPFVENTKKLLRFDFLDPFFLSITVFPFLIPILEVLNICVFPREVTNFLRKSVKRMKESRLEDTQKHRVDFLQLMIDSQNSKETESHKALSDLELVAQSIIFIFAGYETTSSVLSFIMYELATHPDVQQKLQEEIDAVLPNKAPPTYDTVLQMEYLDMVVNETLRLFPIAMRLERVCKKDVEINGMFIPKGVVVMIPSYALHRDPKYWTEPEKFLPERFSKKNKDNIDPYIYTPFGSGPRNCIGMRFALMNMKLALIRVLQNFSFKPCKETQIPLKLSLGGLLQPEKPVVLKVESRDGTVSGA
Chain of Acetylcholinesterase (P22303 whole entry): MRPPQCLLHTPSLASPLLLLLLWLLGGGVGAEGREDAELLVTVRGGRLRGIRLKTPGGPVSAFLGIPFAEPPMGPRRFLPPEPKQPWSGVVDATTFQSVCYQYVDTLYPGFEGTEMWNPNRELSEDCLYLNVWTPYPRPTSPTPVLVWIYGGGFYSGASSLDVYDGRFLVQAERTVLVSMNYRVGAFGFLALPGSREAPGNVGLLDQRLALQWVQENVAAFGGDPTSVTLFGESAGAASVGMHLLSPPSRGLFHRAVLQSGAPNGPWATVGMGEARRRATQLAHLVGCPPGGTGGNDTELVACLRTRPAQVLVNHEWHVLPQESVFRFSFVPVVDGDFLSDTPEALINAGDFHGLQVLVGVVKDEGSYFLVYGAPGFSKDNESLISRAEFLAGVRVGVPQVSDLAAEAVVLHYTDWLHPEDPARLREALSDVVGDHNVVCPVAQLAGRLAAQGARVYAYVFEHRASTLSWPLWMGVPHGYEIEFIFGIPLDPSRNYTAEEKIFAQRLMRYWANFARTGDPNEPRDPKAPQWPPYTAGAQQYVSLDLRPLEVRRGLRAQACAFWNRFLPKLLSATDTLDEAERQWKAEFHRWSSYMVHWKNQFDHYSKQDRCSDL
Chain of Vasopressin V1a receptor (P37288 whole entry): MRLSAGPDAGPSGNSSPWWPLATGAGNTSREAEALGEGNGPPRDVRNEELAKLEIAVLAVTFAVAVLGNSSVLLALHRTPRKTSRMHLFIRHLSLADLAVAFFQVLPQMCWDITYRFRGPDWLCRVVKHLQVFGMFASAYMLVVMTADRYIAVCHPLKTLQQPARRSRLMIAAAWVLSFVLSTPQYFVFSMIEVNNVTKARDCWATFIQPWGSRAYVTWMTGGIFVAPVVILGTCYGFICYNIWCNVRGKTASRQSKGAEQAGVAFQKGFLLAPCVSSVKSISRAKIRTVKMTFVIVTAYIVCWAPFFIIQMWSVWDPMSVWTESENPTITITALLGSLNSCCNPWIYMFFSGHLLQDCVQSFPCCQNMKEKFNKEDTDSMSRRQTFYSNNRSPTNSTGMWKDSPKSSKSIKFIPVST
Chain of Voltage-gated inwardly rectifying potassium channel KCNH2 (Q12809 whole entry): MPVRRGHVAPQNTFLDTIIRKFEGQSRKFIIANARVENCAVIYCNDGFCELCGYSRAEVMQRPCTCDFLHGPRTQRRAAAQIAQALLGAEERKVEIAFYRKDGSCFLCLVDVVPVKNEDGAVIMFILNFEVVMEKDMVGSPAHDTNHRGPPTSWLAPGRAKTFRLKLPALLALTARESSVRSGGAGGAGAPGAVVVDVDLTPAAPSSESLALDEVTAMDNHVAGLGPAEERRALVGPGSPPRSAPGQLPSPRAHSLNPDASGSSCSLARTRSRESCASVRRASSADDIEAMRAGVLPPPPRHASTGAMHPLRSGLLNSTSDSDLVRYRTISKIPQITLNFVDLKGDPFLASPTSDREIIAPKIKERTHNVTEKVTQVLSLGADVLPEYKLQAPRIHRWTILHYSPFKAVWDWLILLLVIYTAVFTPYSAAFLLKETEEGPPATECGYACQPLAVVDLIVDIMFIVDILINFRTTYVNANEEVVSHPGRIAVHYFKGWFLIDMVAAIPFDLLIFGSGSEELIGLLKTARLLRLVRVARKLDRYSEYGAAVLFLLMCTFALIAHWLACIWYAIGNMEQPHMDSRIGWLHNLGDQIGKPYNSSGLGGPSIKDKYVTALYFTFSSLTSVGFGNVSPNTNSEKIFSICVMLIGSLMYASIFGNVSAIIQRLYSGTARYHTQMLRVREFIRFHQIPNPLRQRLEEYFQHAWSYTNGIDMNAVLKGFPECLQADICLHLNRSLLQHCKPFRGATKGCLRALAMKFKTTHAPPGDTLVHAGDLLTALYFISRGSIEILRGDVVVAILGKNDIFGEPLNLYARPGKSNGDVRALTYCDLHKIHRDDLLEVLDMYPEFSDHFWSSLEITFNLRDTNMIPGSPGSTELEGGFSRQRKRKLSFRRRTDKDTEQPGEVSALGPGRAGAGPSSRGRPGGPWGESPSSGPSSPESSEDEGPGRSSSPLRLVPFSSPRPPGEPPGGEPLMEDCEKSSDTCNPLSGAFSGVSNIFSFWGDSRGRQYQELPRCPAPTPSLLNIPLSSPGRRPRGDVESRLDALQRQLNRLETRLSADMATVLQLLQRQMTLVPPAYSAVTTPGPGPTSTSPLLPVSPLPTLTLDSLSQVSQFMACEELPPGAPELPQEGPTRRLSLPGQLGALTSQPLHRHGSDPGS

Molecule | IC50 [1] | Ki [1] | IC50 [2] | IC50 [3] | Ki [3] | IC50 [4] | IC50 (Vasopressin V1a receptor) | IC50 [5] | Ki [5] | IC50 [6] | Ki [6] | IC50 [7] | Ki [7] | IC50 [8] | Ki [8] | IC50 [9] | Ki [9] | IC50 [10] | IC50 [11] | IC50 (Cytochrome P450 3A4) | further results
CARBOPLATIN | Not Active | Not Active | Not Active | Not Active | Not Active | Not Active | Not Active | Not Active | Not Active | Not Active | Not Active | Not Active | Not Active | Not Active | Not Active | Not Active | Not Active | Not Active | Not Active | Not Active | Ki [2]: Not Active; Ki [4]: Not Active; Ki (Vasopressin V1a receptor): Not Active; IC50 (Leukotriene C4 synthase): Not Active; Ki (Leukotriene C4 synthase): Not Active; Ki [10]: Not Active; Ki [11]: Not Active; Ki (Cytochrome P450 3A4): Not Active; IC50 (Acetylcholinesterase): Not Active; Ki (Acetylcholinesterase): Not Active; IC50 [12]: Not Active; Ki [12]: Not Active
Nc1nc2c(ncn2COC(CO)CO)c(=O)[nH]1 [GANCICLOVIR] | Not Active | Not Active | Not Active | Not Active | Not Active | Not Active | Not Active | Not Active | Not Active | Not Active | Not Active | Not Active | Not Active | Not Active | Not Active | Not Active | Not Active | Not Active | Not Active | Not Active | IC50 (Leukotriene C4 synthase): Not Active; Ki (Cytochrome P450 3A4): Not Active; IC50 (Acetylcholinesterase): Not Active; IC50 [12]: Not Active
CC1(C)S[C@@H]2[C@H](NC(=O)[C@H](NC(=O)N3CCNC3=O)c3ccccc3)C(=O)N2[C@H]1C(=O)O [AZLOCILLIN] | Not Active | Not Active | Not Active | Not Active | Not Active | Not Active | Not Active | Not Active | Not Active | Not Active | Not Active | Not Active | Not Active | Not Active | Not Active | Not Active | Not Active | Not Active | Not Active | Not Active | IC50 (Leukotriene C4 synthase): Not Active; Ki (Cytochrome P450 3A4): Not Active; IC50 (Acetylcholinesterase): Not Active; IC50 [12]: Not Active
COc1ccc2cc(CC(=O)O)ccc2c1 | Not Active | Not Active | Not Active | Not Active | Not Active | Not Active | Not Active | Not Active | Not Active | Not Active | Not Active | Not Active | Not Active | Not Active | Not Active | Not Active | Not Active | Not Active | Not Active | Not Active | IC50 (Leukotriene C4 synthase; read-out: IC50): 49.7 µM; Ki (Cytochrome P450 3A4): Not Active; IC50 (Acetylcholinesterase): Not Active; IC50 [12]: Not Active
